Several values for one entry are separate records, joined by “and”; a condition that tells them apart may be missing. Equal values may be shown once. Entries after “also recorded” stand apart in the source; their conditions may differ.
Columns and labels:
[1] = Chemical stability (physical properties); assay type: physicochemical
[2] = Free radical scavenging
[3] = tested on: conscious rats; test: In vivo bioassay for natriuresis, kaliuresis, diuresis and mean arterial pressure in conscious rats; design: species or system female Sprague-Dawley rats; conditions: for Natriuretic Response (R): Rn = SR/FR, >0.67 active
Description: Female Sprague-Dawley (Harlan) rats (200-250 g) were cannulated in the femoral artery and vein for monitoring of mean arterial pressure (MAP) and infusion of saline and samples, respectively. The bladder was catheterized for collection of urine in ten-minute periods. Furosemide (0.4 mg/kg bwt; 1 mg/mL in 0.17% saline) was infused as a positive control at the beginning of the sixth ten-minute period. The sample was infused at the beginning of the seventeenth ten-minute period. Urine was collected for another 150 minutes. The volume of the urine was determined gravimetrically and the Na^+ and K^+ concentrations determined with a Beckman E2A electrolyte analyzer.
The natriuretic response of a sample was normalized to the dose of furosemide infused. The net sodium excretion for the infusion of furosemide or sample was calculated as follows. The median sodium excretion value (μmoles Na^+ /10 minute period) for the five periods before infusion of furosemide or sample was used to establish a baseline value for the calculation of ΔUNaV(=μmoles Na^+ period-baseline μmoles Na^+) for administration of either furosemide or sample respectively. The sum of ΔUNaV for the four periods following infusion of furosemide was the net sodium excreted for furosemide, defined as FR. The sum of ΔUNaV for the fifteen periods following infusion of the sample was the net sodium excreted for the sample defined as SR. The natriuretic ratio Rn (or normalized natriuretic response) of a sample was calculated by dividing SR by FR(Rn =SR/FR).

[4] = molecular target: Na^+ /K^+ -ATPase (Bos taurus, UniProt Q08DA1); test: Na+/K+-ATPase (sodium pump) inhibition assay, 86Rb+ uptake in MDBK cells; assay type: cell-based, bovine (Madin-Darby bovine kidney cells); conditions: 0.2-200 ng/well
Description: The assay in MDBK cells has been described previously (see Benaksas et al., above). The assay is described briefly here. Madin-Darby bovine kidney (MDBK) cells (ATCC:CCL22) were maintained in Dulbecco's Modified Eagle's Medium (DMEM) with 5% Fetal Bovine Serum and 5% Bovine Calf Serum in a 5% CO2 /95% humidified air atmosphere at 37° C. and split (1:2) once per week.
One day before the assay, cells were plated in a 96-well plate at a density of 5×10^5 cells/well in DMEM with serum. On the day of the assay the medium was removed and the cells washed with phosphate buffered saline (PBS) before addition of 100 μL of assay media (122 mM NaCl, 1.8 mM CaCl2, 0.8 mM MgSO4, 24 mM NaHCO3, 1 mM sodium pyruvate, 25 mM glucose, 14 mM glycylglycine, 0.2% phenol red, 8 mM Na2 HPO4 1.15 mM KH2 PO4, pH 8.0) and 100 μl of sample. The plate was preincubated for 30 minutes at 37° C., then chilled on ice for 10 minutes. To each well was added 0.15 μCi ^86 RbCl (Amersham) in 10 μL of assay media. The plate was then incubated at 37° C. for 10 minutes. A portion (100 μL) of the supernatant was counted with 0.5 mL of scintillation cocktail in a liquid scintillation counter. As a control for Na^+ /K^+ -ATPase inhibition, a dose response curve for ouabain in the range of 10^-5 -10^-8 M was obtained. Intra-experiment coefficient of variation for ouabain was 3-15%. […]

[5] = literature statement; cited from earlier work

In the case of `Cc1c(O)cc2c(c1C)OC(C)(CCC(=O)O)CC2` (stereo not drawn) [LLU-α, 6-hydroxy-2,7,8-trimethylchroman-2-propanoic acid], the “stability in CDCl3” value ([1]; CDCl3) is reported as “Unstable”, the “stability in dilute base” value ([1]; dilute base) is reported as “instability in dilute base; also recorded: Unstable” and the free radical scavenging [2] is reported as “cardio-selective free radical scavenger”. The natriuretic activity ([3]; 8 μg/kg, further purified on acetic acid/acetonitrile RP-HPLC (seventh step)) was “active”, the natriuretic dose-response curve ([3]; Table III) was “narrow and biphasic” and the “natriuretic activity of isolates” value ([3]; crude isolates from second RP-HPLC step) was “natriuretically active”. For the same molecule, the “sodium excretion in urine relative to potassium excretion” value ([3]; in mammals) was “increasing sodium excretion in the urine in mammals without a corresponding increase in potassium excretion”, the “kaliuresis (potassium excretion) on infusion” value ([3]; infused into conscious rats) was “no detectable kaliuresis” and the natriuresis on infusion ([3]; infused into the rat (FIGS. 3A and B)) was “sustained natriuresis”. For the same molecule, the “effect on blood pressure” value ([3]; infused into the rat, data not shown) was “no effect on blood pressure”, the “change in mean arterial pressure” value ([3]; on infusion, conscious rats) was “does not cause a significant change in mean arterial pressure; also recorded: Neither LLU-α nor -γ caused a significant change in mean arterial pressure” and the “natriuretic activity at lower or higher doses” value ([3]; partially purified (sixth purification step), doses below or above 4-8 μg/kg) was “no activity”. The “natriuretically active dose range” value ([3]; partially purified, silica gel HPLC (sixth purification step)) was 4 to 8 µg/kg, the “Natriuretic Response (R)” value ([3]; silica gel HPLC fraction 17, dose 0.2 μg) was -0.14 and the “Natriuretic Response (R)” value ([3]; silica gel HPLC fraction 17, dose 1 μg) was 0.27. The “Natriuretic Response (R)” value ([3]; silica gel HPLC fraction 17, dose 2 μg) was 1.14 and 0.75, the “Natriuretic Response (R)” value ([3]; silica gel HPLC fraction 17, dose 10 μg) was 0.26 and the “Natriuretic Response (R)” value ([3]; silica gel HPLC fraction 18, dose 56.4 μg) was 0.23. The “Natriuretic Response (R)” value ([3]; silica gel HPLC fraction 18, dose 224 μg) was 0.02, the “Natriuretic Response (R)” value ([3]; silica gel HPLC fraction 19, dose 0.2 μg) was 0.24 and the “Natriuretic Response (R)” value ([3]; silica gel HPLC fraction 19, dose 1 μg) was 0.93. The “Natriuretic Response (R)” value ([3]; silica gel HPLC fraction 19, dose 10 μg) was 0.09 and the “Na^+ /K^+ -ATPase inhibition” value [4] was “no inhibition”.

For `C[C@@H]1O[C@@H](O[C@H]2C[C@@H](O)[C@]3(CO)[C@H]4[C@H](O)C[C@]5(C)[C@@H](C6=CC(=O)OC6)CC[C@]5(O)[C@@H]4CC[C@]3(O)C2)[C@H](O)[C@H](O)[C@H]1O` [Ouabain], the natriuretic activity [5] is listed as “not, however, natriuretic”.

For `C[C@H]1O[C@@H](O[C@H]2[C@@H](O)C[C@H](O[C@H]3[C@@H](O)C[C@H](O[C@H]4CC[C@@]5(C)[C@H](CC[C@@H]6[C@@H]5C[C@@H](O)[C@]5(C)[C@@H](C7=CC(=O)OC7)CC[C@]65O)C4)O[C@@H]3C)O[C@@H]2C)C[C@H](O)[C@@H]1O` [digoxin], the natriuretic activity [5] is listed as “not, however, natriuretic”.

— patent US6083982A, “Natriuretic compounds” (Loma Linda University Medical, priority 1998, dated 2000)
